{"source": "patent US20190015423A1", "about": "“REGULATION OF GENE EXPRESSION BY MODULATING PRIMARY CILIA LENGTH” (THE TRUSTEES OF COLUMBIA UNIVERSITY IN THE CITY OF NEW YORK, priority 2016, published 2019)", "key": {"MLO-Y4 osteocytes [1]": {"test_system": "MLO-Y4 osteocytes", "test": "Primary cilia length and incidence by immunocytochemistry (acetylated α-tubulin)", "type": "cell-based", "conditions": "for cilia incidence in untransfected (healthy, ciliated) cells: fenoldopam; for cilia incidence in AC6 siRNA treated cells / recovering cilia length in AC6 siRNA treated cells: fenoldopam on AC6 siRNA treated cells", "description": "MLO-Y4 osteocytes were cultured on collagen-coated dishes in MEMα (Life Tech) supplemented with 5% fetal bovine serum, 5% calf serum, and 1% penicillin/streptomycin at 37° C. and 5% CO2. […] These agents, or their vehicle control, were applied to cells for 16 h prior to experimentation. MTT, (methylthiazolyldiphenyl-tetrazolium bromide) assay (Sigma) was performed according to manufacturer's protocol to assess cell viability during drug treatments. Phase contrast microscopy with an Olympus CKX41 inverted microscope and 40× objective was used to assess cell morphology.\nFor primary cilia imaging and analysis, cells cultured on collagen I-coated glass were fixed in 10% formalin and treated with anti-acetylated α-tubulin primary antibody, 1:1, from a C3B9 hybridoma cell line (Sigma). Cilia were visualised with Alexa-Fluor 488 secondary antibody, 1:1000 (Life Technologies) and imaged with a 100× oil objective on an Olympus Fluoview FV1000 confocal microscope. Nuclei were stained with DAPI (Life Technologies). Cilia length was analyzed using Image J software.\nGene silencing was performed by siRNA mediated knockdown and compared to scramble siRNA control (Life Technologies). […]"}, "MLO-Y4 osteocytes [2]": {"test_system": "MLO-Y4 osteocytes", "test": "Oscillatory fluid flow-induced mRNA expression (COX-2, OPN, AC6), flow vs no flow", "type": "cell-based", "conditions": "for COX-2 mRNA response to flow (in words) / OPN mRNA response to flow (in words): fenoldopam 16 hours, flow 1 hour, relative to GAPDH"}, "Adenylyl cyclase": {"test_system": "Adenylyl cyclase", "test": "Adenylyl cyclase activity: forskolin stimulated cAMP ELISA", "type": "cell-based", "description": "Adenylyl cyclase activity was quantified by cAMP ELISA (Enzo). […] Cells were stimulated by 10 μM forskolin (Sigma) or DMSO vehicle control for 20 minutes prior to lysis with 0.1 M HCl. Cell lysate was analyzed according to manufacturer's protocol, and normalized to total protein quantified by BCA (Thermo Fisher). All samples and standards were run in duplicate."}, "MLO-Y4 osteocytes [3]": {"test_system": "MLO-Y4 osteocytes", "test": "mRNA expression (AC6, IFT88) by quantitative real-time PCR, no flow", "type": "cell-based", "conditions": "for IFT88 mRNA expression in untransfected cells: fenoldopam"}, "MC3T3 osteoblasts": {"test_system": "MC3T3 osteoblasts", "test": "Flow-induced paracrine signaling: conditioned media of treated osteocytes on osteoblasts (OPN mRNA)", "type": "cell-based", "conditions": "osteocytes treated with fenoldopam 10 μM 16 hours; 12 hrs flow; osteoblasts cultured 24 hours"}, "C57Bl/6 mice": {"test_system": "C57Bl/6 mice", "test": "Load-induced bone formation: compressive ulnar loading and dynamic histomorphometry", "type": "in vivo", "conditions": "ulnar load final 3 days", "quoted_text": "All data are shown in reference to the non-loaded contralateral limb as control. […] On day 4-6 the mice were subjected to daily axial compressive ulnar loading. Mice were placed under isoflurane anesthesia and forelimbs were placed between two loading cups controlled by an electromagnetic loading system with feedback control (Bose, ELF 3220). An initial 0.1 N preload was applied, followed by 3 N of cyclic compression applied with a 2 Hz sine wave for 120 cycles, generating a strain gage verified average peak deformation of 1895 μstrain. On day 8, mice were subcutaneously injected with calcein (10 mg/kg) and alizarin red (70 mg/kg) on day 12. Mice were euthanized on day 18 and prepared for dynamic histomorphometric analysis.\nCompressive ulnar loading was applied on days 5-7 to mechanically stimulate bone (3N at 2 Hz for 120 cycles) [9].\nOn the final three days of drug or control injection, animals were also subjected to compressive ulnar load at a peak load of 3 N using a 2 Hz sine wave for 120 cycles, as previously described (Temiyasathit, S. et al. PLoS One 7, (2012); Lee, K. L. et al. FASEB J. 28, 1157-1165 (2014)). Contralateral limbs served as a non-loaded control. 2 days following load, mice were treated with 10 mg/kg calcein (Sigma), and 4 days later 70 mg/kg alizarin (Sigma), with mice being sacrificed 6 days later.\nDynamic histomorphometry was performed as previously described, measuring the amount and separation of calcein and alizarin labels to quantify mineralizing surface (rMS/BS), mineral apposition rate (rMAR), and bone formation rate (rBFR/BS) relative to non-loaded controls (Temiyasathit, S. et al. PLoS One 7, (2012); Lee, K. L. et al. FASEB J. 28, 1157-1165 (2014)). Left and right ulnae were dissected and preserved in ethanol. Samples were then infiltrated with methyl methacrylate, and embedded in methyl methacrylate and benzoyl peroxide. Transverse sections of the ulnar midshaft were imaged on a laser scanning confocal microscope (Olympus Fluoview FV1000). Measurements of outer bone perimeter (OP), single label perimeter (SL), double label perimeter (DL), and double label area (DA) were made in ImageJ. The mineralizing surface relative to outer bone surface (MS/BS), mineral apposition rate (MAR), and bone formation rate (BFS/BS) were calculated as:\nRelative measurements—rMS/BS, rMAR, rBFR/BS—were determined by subtracting non-loaded from loaded ulnae to display differences due to mechanical load."}, "[4]": {"test": "Adverse effects of drug treatment: body, kidney and liver weight, H&E histology, bone ultrastructure, injection site", "type": "in vivo, mice", "conditions": "fenoldopam 20 mg/kg; for visible bone ultrastructure: loaded ulnae", "text": "Mice were housed in the Columbia University Barrier Facility and fed ad libidum. All procedures performed were in accordance with Columbia University Institutional Animal Care and Use Committee guidelines.\nKidneys and liver were dissected from animals, weighed, fixed in 10% formalin, and stored in 70% ethanol before being paraffin embedded. 5 μm thick longitudinal sections were made, and samples were stained with hematoxylin and eosin to visualize tissue structure. Images were captured at 4× magnification. Kidney function was broadly examined by urine creatinine concentration. […] Hydrophobic sand (Lab Sand) was used for urine sample collection, and analysis was performed using a total urine creatinine kit (Cayman Chemical)."}, "[5]": {"test_system": "Ovariectomized (OVX) mice", "test": "Load-induced bone formation in ovariectomized (OVX) osteoporotic mice", "type": "in vivo", "conditions": "fenoldopam 20 mg/kg 7 days, compressive ulnar load", "description": "On the final three days of drug or control injection, animals were also subjected to compressive ulnar load at a peak load of 3 N using a 2 Hz sine wave for 120 cycles, as previously described ([…]. et al. PLoS One 7, (2012); Lee, K. L. et al. FASEB J. 28, 1157-1165 (2014)). Contralateral limbs served as a non-loaded control. 2 days following load, mice were treated with 10 mg/kg calcein (Sigma), and 4 days later 70 mg/kg alizarin (Sigma), with mice being sacrificed 6 days later. Dynamic histomorphometry was performed as previously described, measuring the amount and separation of calcein and alizarin labels to quantify mineralizing surface (rMS/BS), mineral apposition rate (rMAR), and bone formation rate (rBFR/BS) relative to non-loaded controls ([…]. et al. PLoS One 7, (2012); Lee, K. L. et al. FASEB J. 28, 1157-1165 (2014)). Left and right ulnae were dissected and preserved in ethanol. Samples were then infiltrated with methyl methacrylate, and embedded in methyl methacrylate and benzoyl peroxide. Transverse sections of the ulnar midshaft were imaged on a laser scanning confocal microscope (Olympus Fluoview FV1000). Measurements of outer bone perimeter (OP), single label perimeter (SL), double label perimeter (DL), and double label area (DA) were made in ImageJ. The mineralizing surface relative to outer bone surface (MS/BS), mineral apposition rate (MAR), and bone formation rate (BFS/BS) were calculated as: Relative measurements-rMS/BS, rMAR, rBFR/BS-were determined by subtracting non-loaded from loaded ulnae to display differences due to mechanical load. Ovariectomized (OVX) and Sham animals were purchased directly from Jackson Laboratories, with surgery performed at 12 weeks old. […] Dynamic histomorphometry was only performed on OVX animals, while Sham animals were used to confirm osteoporotic phenotype based on μCT analysis."}, "[6]": {"conditions": "fenoldopam 100 mg/kg, rat model (Dalmas et al. 2008); cited from earlier work"}, "[7]": {"conditions": "fenoldopam on IFT88 siRNA treated cells"}, "[8]": {"conditions": "10 μM fenoldopam 16 h, flow 1 hr, fold change flow over no flow"}, "[9]": {"conditions": "fenoldopam on AC6 siRNA treated cells"}, "[10]": {"conditions": "fenoldopam treatment of osteocytes"}, "[11]": {"conditions": "fenoldopam 20 mg/kg s.c. 7 consecutive days, relative to non-loaded limb, vs vehicle"}, "[12]": {"conditions": "fenoldopam 20 mg/kg s.c. 7 consecutive days, relative to non-loaded limb, vs vehicle, listed as Fenoldopam"}, "[13]": {"conditions": "fenoldopam 50 mg/kg (Fen-High) s.c. 7 consecutive days"}}, "note": "“Also recorded” adds a separate entry of the source. Where a name gives a salt, the structure may show the parent alone."}
{"smiles": "Oc1ccc(C2CNCCc3c2cc(O)c(O)c3Cl)cc1", "note": "(stereo not drawn) [fenoldopam, Fenoldopam mesylate]", "values": [{"measurement": "primary cilia length compared to vehicle control (in words)", "setting": "MLO-Y4 osteocytes [1]; 10 μM fenoldopam, 16 h", "value": "significantly increases"}, {"measurement": "primary cilia length compared to vehicle control (in words)", "setting": "MLO-Y4 osteocytes [1]; 10 μM fenoldopam, 16 h, listed as Fenoldopam", "value": "increased"}, {"measurement": "increases in cilia length compared to vehicle control", "setting": "MLO-Y4 osteocytes [1]; 10 μM fenoldopam, 16 h, mean±SEM", "value": "26%±7%"}, {"measurement": "cilia incidence in untransfected (healthy, ciliated) cells", "setting": "MLO-Y4 osteocytes [1]", "value": "no significant effect"}, {"measurement": "cilia incidence in AC6 siRNA treated cells", "setting": "MLO-Y4 osteocytes [1]", "value": "Neither AC6 siRNA nor fenoldopam alter cilia incidence"}, {"measurement": "recovering cilia length in AC6 siRNA treated cells", "setting": "MLO-Y4 osteocytes [1]", "value": "not recovered"}, {"measurement": "cilia incidence in AC6 siRNA treated cells", "setting": "MLO-Y4 osteocytes [1]; listed as Fenoldopam", "value": "no effect"}, {"measurement": "recovering cilia length in AC6 siRNA treated cells", "setting": "MLO-Y4 osteocytes [1]; listed as Fenoldopam", "value": "no effect"}, {"measurement": "cilia incidence in IFT88 siRNA treated cells", "setting": "MLO-Y4 osteocytes [1]; [7]", "value": "significantly recovering; also recorded: recovered"}, {"measurement": "cilia length / formation in IFT88 siRNA treated cells", "setting": "MLO-Y4 osteocytes [1]; [7]", "value": "noticeably recovered; also recorded: appears to recover cilia length"}, {"measurement": "cilia length / formation in IFT88 siRNA treated cells", "setting": "MLO-Y4 osteocytes [1]; fenoldopam on IFT88 siRNA treated cells, listed as Fenoldopam", "value": "recovers primary cilia formation"}, {"measurement": "cilia incidence in untransfected (healthy, ciliated) cells", "setting": "MLO-Y4 osteocytes [1]; listed as Fenoldopam", "value": "no effect"}, {"measurement": "elevated flow-induced COX-2 mRNA expression compared to unlengthened controls", "setting": "MLO-Y4 osteocytes [2]; [8]", "value": "124%±27%"}, {"measurement": "elevated flow-induced OPN mRNA expression compared to unlengthened controls", "setting": "MLO-Y4 osteocytes [2]; [8]", "value": "48%±8%"}, {"measurement": "COX-2 mRNA response to flow (in words)", "setting": "MLO-Y4 osteocytes [2]", "value": "significant increases"}, {"measurement": "OPN mRNA response to flow (in words)", "setting": "MLO-Y4 osteocytes [2]", "value": "significant increases"}, {"measurement": "COX-2 mRNA response to flow (in words)", "setting": "MLO-Y4 osteocytes [2]; listed as Fenoldopam", "value": "increased"}, {"measurement": "OPN mRNA response to flow (in words)", "setting": "MLO-Y4 osteocytes [2]; listed as Fenoldopam", "value": "increased"}, {"measurement": "AC6 mRNA expression in AC6 siRNA treated cells under flow", "setting": "MLO-Y4 osteocytes [2]; [9]", "value": "not recovered"}, {"measurement": "flow-induced OPN mRNA expression in AC6 siRNA treated cells", "setting": "MLO-Y4 osteocytes [2]; [9]", "value": "not recovered"}, {"measurement": "flow stimulated OPN expression in IFT88 siRNA treated cells (in words)", "setting": "MLO-Y4 osteocytes [2]; [7]", "value": "able to recover"}, {"measurement": "recovery of flow-induced OPN response compared to IFT88 siRNA and vehicle treated cells", "setting": "MLO-Y4 osteocytes [2]; fenoldopam on IFT88 siRNA treated cells, flow 1 h", "value": "52%±1%"}, {"measurement": "enhancement of forskolin stimulated cAMP response compared to vehicle control", "setting": "Adenylyl cyclase; 10 μM fenoldopam 16 hours, then 10 μM forskolin 20 minutes", "value": "130%±25%"}, {"measurement": "cAMP response to forskolin stimulation (in words)", "setting": "Adenylyl cyclase; fenoldopam 16 h, then forskolin 20 min", "value": "significantly increases"}, {"measurement": "IFT88 mRNA expression in untransfected cells", "setting": "MLO-Y4 osteocytes [3]", "value": "no significant effect"}, {"measurement": "AC6 mRNA expression (in words)", "setting": "MLO-Y4 osteocytes [3]; [10]", "value": "significantly increases"}, {"measurement": "increase in AC6 mRNA expression", "setting": "MLO-Y4 osteocytes [3]; [10]", "value": "20%±8%"}, {"measurement": "IFT88 mRNA expression in untransfected cells", "setting": "MLO-Y4 osteocytes [3]; listed as Fenoldopam", "value": "did not alter"}, {"measurement": "osteoblast osteogenic gene (osteopontin, OPN) expression after conditioned media from flow-stimulated osteocytes", "setting": "MC3T3 osteoblasts", "value": "increased; also recorded: significantly enhanced"}, {"measurement": "bone formation rate (rBFR/BS)", "setting": "C57Bl/6 mice; [11]", "value": "significantly increased; also recorded: significant increases; also recorded: significantly enhanced"}, {"measurement": "mineral apposition rate (rMAR)", "setting": "C57Bl/6 mice; [11]", "value": "significantly increased; also recorded: significant increases"}, {"measurement": "mineralizing surface (rMS/BS)", "setting": "C57Bl/6 mice; [11]", "value": "remained unchanged; also recorded: neither fenoldopam concentration elicited a significant increase"}, {"measurement": "bone formation rate (rBFR/BS)", "setting": "C57Bl/6 mice; [12]", "value": "enhances"}, {"measurement": "mineralizing surface (rMS/BS)", "setting": "C57Bl/6 mice; [12]", "value": "no effect"}, {"measurement": "bone formation rate (rBFR/BS)", "setting": "C57Bl/6 mice; [13]", "value": "no statistically significant difference; also recorded: no effect; also recorded: elicited no bone formation response"}, {"measurement": "mineral apposition rate (rMAR)", "setting": "C57Bl/6 mice; [13]", "value": "no statistically significant difference; also recorded: no effect"}, {"measurement": "mineralizing surface (rMS/BS)", "setting": "C57Bl/6 mice; [13]", "value": "no statistically significant difference; also recorded: no effect"}, {"measurement": "visible bone ultrastructure", "setting": "[4]; 7 days, vs vehicle control", "value": "no difference"}, {"measurement": "visible bone ultrastructure", "setting": "[4]; 7 days, vs vehicle control, listed as Fenoldopam", "value": "no qualitative change"}, {"measurement": "kidney morphology assessed by H&E stain", "setting": "[4]; 7 days, vs vehicle control", "value": "remained unchanged"}, {"measurement": "kidney weight", "setting": "[4]; 7 days, vs vehicle control", "value": "remained unchanged"}, {"measurement": "mouse weight", "setting": "[4]; 7 days, vs vehicle control", "value": "remained unchanged"}, {"measurement": "kidney histology", "setting": "[4]; preliminary study", "value": "no abnormalities or cysts"}, {"measurement": "kidney weight to body mass measurements", "setting": "[4]; preliminary study", "value": "no different than vehicle controls"}, {"measurement": "bone formation rate (rBFR/BS) compared to vehicle control", "setting": "[5]", "value": "increased"}, {"measurement": "mineral apposition rate (rMAR) compared to vehicle control", "setting": "[5]", "value": "increased"}, {"measurement": "mineralizing surface (rMS/BS) compared to vehicle control", "setting": "[5]", "value": "increased"}, {"measurement": "vasotoxicity", "setting": "[6]", "value": "vasotoxic"}]}
